Read-outs that look alike come from different tables or passages of the source.
Assays:
[1] = test system: TNFα; assay: cells; type: cell-based, human; settings: LPS-stimulated human monocytes, read-out: EC50 TNF
[2] = target: IRAK4 enzyme (Homo sapiens (Human), UniProt Q9NWZ3); assay: biochemical; type: biochemical; settings: IRAK4 enzyme, 500 μM ATP
[3] = Homo sapiens, Monocyte, TNFα content
[4] = Homo sapiens, Monocyte, TNFα by TR-FRET

IRAK4 enzyme, sequence (Q9NWZ3 whole entry): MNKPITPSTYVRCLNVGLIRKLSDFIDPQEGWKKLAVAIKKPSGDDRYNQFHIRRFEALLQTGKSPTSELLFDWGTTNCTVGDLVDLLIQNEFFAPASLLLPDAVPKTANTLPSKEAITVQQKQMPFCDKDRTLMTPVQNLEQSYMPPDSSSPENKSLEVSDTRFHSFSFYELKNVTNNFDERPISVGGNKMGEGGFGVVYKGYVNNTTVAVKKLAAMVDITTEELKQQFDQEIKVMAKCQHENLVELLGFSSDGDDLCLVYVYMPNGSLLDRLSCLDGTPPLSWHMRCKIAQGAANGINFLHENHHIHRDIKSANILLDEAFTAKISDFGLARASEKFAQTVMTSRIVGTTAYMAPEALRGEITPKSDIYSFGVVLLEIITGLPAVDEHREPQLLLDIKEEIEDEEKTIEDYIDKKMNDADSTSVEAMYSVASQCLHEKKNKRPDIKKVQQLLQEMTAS

| Structure (SMILES) | EC50 [1, 3] | IC50 ([2]; TR-FRET) | EC50 [1, 4] | IC50 ([2]; TR-FRET (HTRF)) | EC50 ([1]; TNFα by TR-FRET) |
| --- | --- | --- | --- | --- | --- |
| C[C@@H](O)C(=O)N1CCC(Nc2cc(-c3ccc4cc(C#N)cnn34)ncc2C(=O)NC[C@@H](F)C(C)(C)O)CC1 [Example 324, 6-(3-cyanopyrrolo[1,2-b]pyridazin-7-yl)-N-((R)-2-fluoro-3-hydroxy-3-methylbutyl)-4-((1-((R)-2-hydroxy-propanoyl)piperidin-4-yl)amino)nicotinamide] | 157 nM | 2 nM |  |  |  |
| COC(=O)C1(NC(=O)c2cnc(-c3ccc4cc(C#N)cnn34)cc2NC23CCC(O)(CC2)CC3)CC1 [Example 949, methyl 1-(6-(3-cyano-pyrrolo[1,2-b]pyridazin-7-yl)-4-((4-hydroxy-bicyclo[2.2.2]octan-1-yl)amino)nicotinamido) cyclopropane-1-carboxylate] |  | 1 nM | 62 nM |  |  |
| CC(C)(O)[C@H](F)CNC(=O)c1cnc(-c2ccc3cc(C#N)cnn23)cc1Nc1ccc(-c2c[nH]cn2)cc1 [Example 234, (R)-4-((4-(1H-imidazol-4-yl)phenyl)amino)-6-(3-cyanopyrrolo[1,2-b]pyridazin-7-yl)-N-(2-fluoro-3-hydroxy-3-methylbutyl) nicotinamide] | 33 nM | < 1 nM |  |  |  |
| CC(=O)N1C[C@H]2C[C@@H](Nc3cc(-c4ccc5cc(C#N)cnn45)ncc3C(=O)NC[C@@H](F)C(C)(C)O)C[C@H]2C1 [Example 246, 4-(((3aR,5r,6aS)-2-acetyl-octahydrocyclopenta[c]pyrrol-5-yl)amino)-6-(3-cyanopyrrolo[1,2-b]pyridazin-7-yl)-N-((R)-2-fluoro-3-hydroxy-3-methylbutyl)nicotinamide] | 637 nM | 17 nM |  |  |  |
| COc1cncc(Nc2cc(-c3ccc4cc(C#N)cnn34)ncc2C(=O)NC[C@@H](F)C(C)(C)O)c1 [Example 605, (R)-6-(3-cyanopyrrolo[1,2-b]pyridazin-7-yl)-N-(2-fluoro-3-hydroxy-3-methyl-butyl)-4-((5-methoxy-pyridin-3-yl)amino) nicotinamide] | 24 nM |  |  | < 1 nM |  |
| CC(C)(O)CCNC(=O)c1cnc(-c2ccc3cc(C#N)cnn23)cc1NC12CCC(O)(CC1)CC2 [Example 355, 6-(3-cyanopyrrolo[1,2-b]pyridazin-7-yl)-N-(3-hydroxy-3-methylbutyl)-4-((4-hydroxy-bicyclo[2.2.2]octan-1-yl)amino)nicotinamide] | 23 nM | < 1 nM |  |  |  |
| CC(C)(O)[C@H](F)CNC(=O)c1cnc(-c2ccc3cc(C#N)cnn23)cc1NC1CC2(CCN2CC(F)(F)F)C1 (stereo partly drawn) [Example 910, 6-(3-cyanopyrrolo[1,2-b]pyridazin-7-yl)-N-((R)-2-fluoro-3-hydroxy-3-methylbutyl)-4-(((4S,6r)-1-(2,2,2-trifluoroethyl)-1-azaspiro[3.3]heptan-6-yl)amino)nicotinamide] |  | 10 nM |  |  | 1210 nM |
| CC(C)Nc1cc(-c2ccc3cc(C#N)cnn23)ncc1C(=O)NC1CC1CO (single isomer, unassigned) [Example 18, 6-(3-cyanopyrrolo[1,2-b]pyridazin-7-yl)-N-(2-(hydroxymethyl)cyclopropyl)-4-(isopropylamino)nicotinamide] | 757 nM | 9 nM |  |  |  |
| CC(C)(C)C(=O)N[C@H]1CC[C@H](Nc2cc(-c3ccc4cc(C#N)cnn34)ncc2C(=O)NC[C@@H](F)C(C)(C)O)CC1 [Example 296, 6-(3-cyanopyrrolo[1,2-b]pyridazin-7-yl)-N-((R)-2-fluoro-3-hydroxy-3-methylbutyl)-4-(((1r,4R)-4-pivalamidocyclohexyl)amino)nicotinamide] | 391 nM | 3 nM |  |  |  |
| CC(C)(O)[C@H](F)CNC(=O)c1cnc(-c2ccc3cc(C#N)cnn23)cc1NC12CC(CNC(=O)C3CC3(F)F)(C1)C2 (stereo partly drawn) [Example 833, 6-(3-cyanopyrrolo[1,2-b]pyridazin-7-yl)-4-((3-(((R)-2,2-difluorocyclo-propane-1-carboxamido)methyl)bicyclo[1.1.1]pentan-1-yl)amino)-N-((R)-2-fluoro-3-hydroxy-3-methylbutyl)nicotinamide] |  | 1 nM | 192 nM |  |  |
| COC(=O)NC[C@H]1C[C@H](Nc2cc(-c3ccc4cc(C#N)cnn34)ncc2C(=O)NCC#N)C1 [Example 613, methyl (((1r,3r)-3-((5-((cyanomethyl)carbamoyl)-2-(3-cyanopyrrolo[1,2-b]pyridazin-7-yl)pyridin-4-yl)amino)cyclobutyl)methyl)carbamate] | 15 nM |  |  | < 1 nM |  |
| CC(=O)NC12CC(Nc3cc(-c4ccc5cc(C#N)cnn45)ncc3C(=O)NCC(F)F)(C1)C2 [Example 278, 4-((3-acetamido-bicyclo[1.1.1]pentan-1-yl)amino)-6-(3-cyano-pyrrolo[1,2-b]pyridazin-7-yl)-N-(2,2-difluoroethyl) nicotinamide] | 165 nM | 3 nM |  |  |  |
| Cc1ccc(Nc2cc(-c3ccc4cc(C#N)cnn34)ncc2C(=O)NC[C@@H](F)C(C)(C)O)cn1 [Example 184, (R)-6-(3-cyanopyrrolo[1,2-b]pyridazin-7-yl)-N-(2-fluoro-3-hydroxy-3-methylbutyl)-4-((6-methylpyridin-3-yl)amino)nicotinamide] | 48 nM | < 1 nM |  |  |  |
| CC(C)Nc1cc(-c2ccc3cc(C#N)cnn23)ncc1C(=O)N[C@H]1CC[C@H](N)CC1 [Example 12, N-((1r,4r)-4-aminocyclohexyl)-6-(3-cyanopyrrolo[1,2-b]pyridazin-7-yl)-4-(isopropylamino)nicotinamide] | 97 nM | 2 nM |  |  |  |
| CC(C)(O)[C@H](F)CNC(=O)c1cnc(-c2ccc3cc(C#N)cnn23)cc1NC1CC2(C1)CN(CC(F)(F)F)C2 [Example 898, (R)-6-(3-cyanopyrrolo[1,2-b]pyridazin-7-yl)-N-(2-fluoro-3-hydroxy-3-methylbutyl)-4-((2-(2,2,2-trifluoroethyl)-2-aza-spiro[3.3]heptan-6-yl)amino)nicotinamide] |  | < 1 nM | 118 nM |  |  |
| CC(C)Nc1cc(-c2ccc3cc(C#N)cnn23)ncc1C(=O)NCCC1(O)CCOCC1 [Example 95, 6-(3-cyanopyrrolo[1,2-b]pyridazin-7-yl)-N-(2-(4-hydroxytetrahydro-2H-pyran-4-yl)ethyl)-4-(isopropylamino) nicotinamide] | 42 nM | 1 nM |  |  |  |
| CC(C)(O)[C@H](F)CNC(=O)c1cnc(-c2ccc3cc(C#N)cnn23)cc1Nc1cnn([C@H]2CCN(C3COC3)C2)c1 [Example 199, 6-(3-cyanopyrrolo[1,2-b]pyridazin-7-yl)-N-((R)-2-fluoro-3-hydroxy-3-methylbutyl)-4-((1-((S)-1-(oxetan-3-yl)pyrrolidin-3-yl)-1H-pyrazol-4-yl)amino)nicotinamide] | 82 nM | < 1 nM |  |  |  |
| CN1CC2C[C@@H](Nc3cc(-c4ccc5cc(C#N)cnn45)ncc3C(=O)NC[C@@H](F)C(C)(C)O)C[C@@H]2C1 (stereo partly drawn) [Example 245, 6-(3-cyanopyrrolo[1,2-b]pyridazin-7-yl)-N-((R)-2-fluoro-3-hydroxy-3-methylbutyl)-4-(((3aR,5s,6aS)-2-methyloctahydrocyclopenta[c]pyrrol-5-yl)amino)nicotinamide] | 92 nM | 2 nM |  |  |  |
| CCS(=O)(=O)CCCNc1cc(-c2ccc3cc(C#N)cnn23)ncc1C(=O)NC[C@@H](F)C(C)(C)O [Example 439, (R)-6-(3-cyanopyrrolo[1,2-b]pyridazin-7-yl)-4-((3-(ethylsulfonyl)propyl)amino)-N-(2-fluoro-3-hydroxy-3-methylbutyl) nicotinamide] | 40 nM |  |  | < 1 nM |  |

Source: US10336762B2 (priority 2017, dated 2019)
